Source: patent US20110224300A1, “USE OF POTASSIUM 2-(a- HYDROXYPENTYL) BENZOATE IN THE MANUFACTURE OF MEDICAMENTS FOR PREVENTING AND/OR TREATING SENILE [sequence]” (Institute of Mataria Medica, Chinese Academy of Me, priority 2008, published 2011)

How the values were obtained:
[1] = test system: Aβ(25-35)-induced dementia rats; assay: Morris water maze in Aβ(25-35)-induced dementia rats; type: in vivo, Male Wistar rats; conditions: Aβ(25-35) rats; for percentage of time in the target quadrant (probe test): vehicle 21.6±1.6%
Procedure: Subjects were tested in a Morris water maze. This test is based on a standardized assessment of spatial learning ability. The water maze apparatus consisted of a circular, stainless pool (120 cm in diameter, 60 cm in height). It was placed in a dimly lit, sound-proof test room. Multiple distant cues around the room (window, cabinets, furniture) were kept in the same location throughout the experiments. The water was filled to a depth of 40 cm at 25±1° C. and was made opaque by adding milk powder to prevent visualization of the platform. A transparent platform (10 cm diameter) was put 1.5 cm below the surface of the water. The tank was divided into four quadrants with the platform in a fixed position in one quadrant. The subjects were placed into the maze facing the pool wall and were allowed two trials per day, 60 s per trial, to find the hidden platform. If the subject found the platform within the 60 s, it was given a 10-s rest period on the platform between trials. If the pedestal was not located within the time allotted, the subject was placed on to the platform and allowed 10 s until the next trial. The escape latency (time to reach the platform) was used to assess acquisition of the water maze task. Sessions were repeated for five consecutive days. On the sixth day, the platform was removed and the rat was allowed to search for the platform for 60 s (probe test). The time in the platform quadrant and latency time to cross platform location were recorded to measure the spatial learning ability without the influence of chance encounters with the platform. The Morris water maze sessions were recorded with a video camera for offline analysis.
Aβ(25-35)-induced dementia model in 10 months of Male Wistar rats with 600 g B.W. was created by slow injection of 15 nmol (volume of 50) aggregation of Aβ (25-35). Sham-operation group was only injected with PBS (volume of 50). After operation, the animals were injected penicillin 200 000 units for 4 days by intraperitoneal injection.
Rats were divided into four experimental groups randomly (10 rats/each group): one sham-operated group, one vehicle control group, and two dl-PHPB-treated groups (39, and 129 mg/kg). At 1 days after operation, drugs and vehicle were administered orally to rats for 14 days (one time/each day). The spatial learning and memory abilities of rats were detected by Morris water maze in the 9-12 days after operation. The testing of Morris water was commenced at 40 min after drugs treated. The biochemical and pathology assays conducted later (in 24 h) after behavioral testing.
The navigation test was performed in 9-12 days after icy Aβ (25-35) by the same method as the before. On the thirteenth day, the platform was removed and the rat was allowed to search for the platform for 30 s (probe test). The time in the platform quadrant and latency time to cross platform location were recorded to measure the spatial learning ability without the influence of chance encounters with the platform.

SAMP8 mice = assay: Water maze test (blind sides) in SAMP8 mice; type: in vivo
Procedure: (§1) SAMP8 were divided into three experimental groups randomly: one vehicle control group, and two dl-PHPB-treated groups (50, and 160 mg/kg). Drugs and vehicle were administered orally to SAMP8 mice for 35 days (one time/each day). The spatial learning and memory abilities of SAMP8 mice were detected by Morris water maze and DTT-2 jumping apparatus in 31-35 days. The testing was commenced at 40 min after drugs treated. The biochemical and pathology assays conducted later (in 24 h) after behavioral testing.
The water maze consisted of square black opaque plastic box (80 cm×50 cm×20 cm), of which four blind-side and a terminal stage. When a black plastic sheet (15 cm×20 cm) was placed in different locations, there were different the starting points and different number of blind side. The water maze filled with water at 25±1° C. to a depth 12 cm. Mice can be placed in different starting point, making experience with different number of blind side to the end. The number of errors into the blind side and the time to reach the end platform (escape latency) was recorded.
Each mouse was permitted to stay there for 5 s and place in the pool, allowed 3 min to find the end platform. The escape latency (time to reach the platform) was used to assess acquisition of the water maze task. Sessions was repeated for 4 consecutive days.

GFAP = GFAP immunohistochemistry, activated astrocytes of 2-VO rats; type: in vivo, rat
Procedure: The method for tissue fixation was described above. Serial coronal sections (40 μm) of the brains were cut through the dorsal hippocampus on a freezing microtome and collected in 6-well plates containing 0.01 M PBS. The detection of GFAP and BDNF immunoreactivity was performed using a conventional avidin-biotin-immunoperoxidease technique.
For quantitative analysis, one from every five samples in a continuous series of hippocampal or cortical tissue sections was taken, and was processed immunohistochemically. Thus, three slides were taken from each rat, and were read under an objective (×1.6) microscope. The total area of positively stained neurons was counted with Image-pro Plus 5.0 software.
Cerebral damage caused by hypoperfusion may be the basis for spatial learning and memory impairment, including earliest white matter damage, accompanied by an increase of astrocytes and microglia activation. Glial fibrillary acidic protein (GFAP) immunohistochemical staining can be used to label the activated astrocytes. 2-3 photos were taken from each selected slices in the same regions. The number of the GFAP positive astrocytes was calculated as the average value of the region. Four anatomical regions were selected to observe: the cortex, hippocampus, corpus callosum and optic tract.

ChAT = ChAT activity of brain tissues from SAMP8 mice; type: in vivo
Procedure: (§2) The biochemical assays were conducted later (in 24 h) after behavioral testing. Eight rats in each group were anesthetized with ether and sacrificed. The brains were quickly removed and cleaned with ice-cold saline. Then the parietal cortex and hippocampus were isolated. For biochemical analysis, the tissues were weighed and homogenized in ice-cold saline with the proportion of 1:9 (w/v). Homogenization (IKA, Germany) was carried out for 2 min in an ice bath. After the homogenates were centrifuged at 2,000×g for 10 min at 4° C. (Sigma, Germany), the supernatant was used for analytical procedures. The levels of choline acetyltransferase (ChAT) SOD, and MDA activities were determined with commercial colorimetric assay kits (Nanjing Jiancheng Bioengineering Institute, China). The content of protein in the supernatant was determined by Bradford method using BSA as standard.
SAMP8 were divided into three experimental groups randomly: one vehicle control group, and two dl-PHPB-treated groups (50, and 160 mg/kg). Drugs and vehicle were administered orally to SAMP8 mice for 35 days (one time/each day). The spatial learning and memory abilities of SAMP8 mice were detected by Morris water maze and DTT-2 jumping apparatus in 31-35 days. The testing was commenced at 40 min after drugs treated. The biochemical and pathology assays conducted later (in 24 h) after behavioral testing. […]

MDA = MDA level of brain tissues from SAMP8 mice; type: in vivo; conditions: 35 days; for MDA level in the hippocampus / decrease of hippocampus MDA level compared with SAMP8: without statistical significance
Procedure: as §2, §1
The methods as described previously.

CCCCC(O)c1ccccc1C(=O)[O-].[K+] (racemic) [dl-PHPB, Potassium 2-(1-Hydroxypentyl)-benzoate]
escape latency ([1]; 39 mg/kg orally, 2nd day of training, P<0.05): shorter than sham group | escape latency ([1]; 39 mg/kg orally, 3rd to 4th days): shorter than vehicle group | percentage of time in the target quadrant (probe test) ([1]; 39 mg/kg orally, trend only): 24.6±3.0% | escape latency ([1]; 129 mg/kg orally, 3rd to 4th days, P<0.05 or P<0.01): significantly shorter than vehicle group | percentage of time in the target quadrant (probe test) ([1]; 129 mg/kg orally, sham 32.8±4.0%, p<0.05 vs vehicle): 30.2±2.5% | time of the first cross platform (probe test) ([1]; dose not specified): shorten trend | number of errors into the blind-side (SAMP8 mice; 50 mg/kg oral, fifth test, vehicle 6.1±1.1, P<0.05): 3.1±0.9 | escape latency time (SAMP8 mice; 50 mg/kg, last test, P<0.01 vs vehicle): significantly shorten the escape latency time | number of errors into the blind-side (SAMP8 mice; 160 mg/kg oral, fifth test, vehicle 6.1±1.1, P<0.05): 2.7±0.3 | escape latency time (SAMP8 mice; 160 mg/kg, fourth training, P<0.05): significantly shortened the escape latency time | escape latency time (SAMP8 mice; 160 mg/kg, last test, P<0.01 vs vehicle): significantly shorten the escape latency time | escape latency time (SAMP8 mice; first and second trainings, each group): no significant difference | number of errors into the blind-side (SAMP8 mice; first three trainings, vs vehicle): no significant difference | number of errors into the blind-side (SAMP8 mice; fourth training, vs vehicle, dose not specified): significantly decreased the number of errors | escape latency time (SAMP8 mice; third training): tendency of the shorter escape latency | GFAP-positive cells in the hippocampus (GFAP; administration of 21 days, P<0.05 or P<0.01): significantly less than in the vehicle group | GFAP-positive cells in the cortex (GFAP; administration of 21 days, in particular dl-PHPB 39 mg/kg (P<0.01)): significantly less than in the vehicle group | GFAP-positive cells in the optic tract (GFAP; dl-PHPB 39 mg/kg, 21 days): significantly less than the vehicle group | GFAP-positive cells in the hippocampus (GFAP; dl-PHPB 39 mg/kg, 21 days, P<0.01): most significant effect | GFAP positive cells in the corpus callosum (GFAP; dl-PHPB 39 mg/kg, P<0.05): significantly decreased level of GFAP positive cells | GFAP-positive cells in the optic tract (GFAP; dl-PHPB 129 mg/kg, 21 days): significantly less than the vehicle group | GFAP-positive cells in the hippocampus (GFAP; dl-PHPB 129 mg/kg, 21 days, P<0.01): most significant effect | ChAT activity in the hippocampus (ChAT; 35 days, dose-dependent, P<0.05): significantly increased ChAT activity | ChAT activity in the cortex (ChAT; cortex, data not shown): did not significantly improve ChAT activity | MDA level in the hippocampus (MDA; 50 mg/kg oral): 1.23±0.05 nmol/mg protein | decrease of hippocampus MDA level compared with SAMP8 (MDA; 50 mg/kg oral): 35.3% | MDA level in the hippocampus (MDA; 160 mg/kg oral): 1.26±0.09 nmol/mg protein | decrease of hippocampus MDA level compared with SAMP8 (MDA; 160 mg/kg oral): 33.7% | MDA level in the cortex (MDA; cortex, data not shown): did not significantly improved in MDA level
